Results as given in patent US6586365B2, “Method for reducing pest damage to corn by treating transgenic corn seeds with clothianidin pesticide” (priority 2000, dated 2003).
Where two headings read alike, the source gives them in different places.

Test system: western and northern corn root worm
Format: in vivo, corn rootworm
Settings: for PERCENT OF CONTROL (3-6 damage level) / PERCENT OF CONTROL (4-6 damage level) / PERCENT OF CONTROL (5-6 damage level) / PERCENT PLANTS HAVING 3-6 DAMAGE LEVEL / PERCENT PLANTS HAVING 4-6 DAMAGE LEVEL / PERCENT PLANTS HAVING 5-6 DAMAGE LEVEL: Iowa 1-6 Scale; for Corn root worm damage (Iowa 1-6 scale), means across locations / Corn root worm damage in each Iowa class (Iowa 1-6 scale): class 1 / Corn root worm damage in each Iowa class (Iowa 1-6 scale): class 2 / Corn root worm damage in each Iowa class (Iowa 1-6 scale): class 3 / Corn root worm damage in each Iowa class (Iowa 1-6 scale): class 4 / Corn root worm damage in each Iowa class (Iowa 1-6 scale): class 5 / Corn root worm damage in each Iowa class (Iowa 1-6 scale): class 6: stage VT-R1
Protocol: Corn seeds of the same hybrid species, with and without the transgenic event, were treated with clothianidin pesticide as follows. A seed treatment formulation was prepared by mixing a measured amount of clothianidin in water as a carrier and applying the formulation for one minute at room temperature to a measured weight of corn seed in a rotostatic seed treater. The respective weights of the pesticide preparation and the corn seed were calculated to provide the desired rate of treatment of pesticide on the seed. The pesticide was mixed into sufficient water to permit efficient distribution of the formulation to all of the seeds in the batch while minimizing loss of treatment formulation due to lack of uptake of the formulation by the seeds. Treated seeds were allowed to sit uncapped for at least four hours before planting.
A field trial was run in accordance with pertinent protocols and in conformance with USDA notification requirements. The purpose of the trial was to determine the efficacy of transgenic event Cry3Bb.11231 in corn seed in combination with corn rootworm seed treatments using clothianidin.
For each growing site that was selected, the plot design included the following:
The following seed treatment combinations were used for each growing area:
All seed treatments with pesticides were carried out as described in Example 1.
For seeds having treatments numbered 3 though 7, the pesticides were applied by the methods described in Example 1. In seed treatment number 8, commercially available Force® 3G was applied to the soil in a 5″ band at the time of sowing. The levels of application are as shown and are within the ranges recommended for standard commercial practice.
Corn seeds to be tested were planted and grown at five different locations across two Midwestern states in the United States corn belt according to the protocol described above.
The determination of damage by corn rootworm was made according to the following protocol. At stage VT-R1, an evaluation of corn rootworm damage was carried out by methods that are well known in the industry, and damage by corn rootworm was reported according to the Iowa 1-6 rating system. In that system, the root systems of 10 corn plants per plot are recovered and scored using the 1-6 rating scale, where: 1=no injury or only a few minor feeding scars, 2=feeding injury evident, but no roots eaten back to 1 ½ inches of the plant, 3=at least one root eaten off to within 1 ½ inches of the plant, but never an entire node of roots destroyed, 4=one node of roots eaten back to within 1 ½ inches of the plant, 5=two nodes (circles) of roots eaten back to within 1 ½ inches of the plant, 6=three nodes (circles) of roots eaten back to within 1 ½ inches of the plant.
The combinations of clothianidin seed treatment with corn seed having a Cry3Bb.11231 transgenic event were tested for possible synergy at three levels of rootworm damage. In the first test, shown in Table 2(a), the percentage of test plants having damage levels of from 3 to 6, on the Iowa 1-6 Scale, were determined for the control and for seeds treated with the pesticide at two levels, and for seeds having the transgenic event, alone and in combination. The following formula was then used to calculate a “synergy threshold”:
(% of control Cry3Bb.11231)*(% of control clothianidin treatment)/100.
This threshold was compared against the percent of control for the treatment combinations (i.e., Cry3Bb.11231 with clothianidin @ 100 gm/100 kg and Cry3Bb.11231 with clothianidin @ 300 gm/100 kg). If the treatment combination percent of control was below the threshold, then it was concluded that there was synergy.

[1] = clothianidin seed treatment @ 100 g/100 kg seed
[2] = clothianidin seed treatment @ 300 g/100 kg seed
[3] = clothianidin seed treatment @ 400 g/100 kg seed

For `CN/C(=N\[N+](=O)[O-])NCc1cnc(Cl)s1` [Clothianidin, N-[(2-chloro-5-thiazoyl)methyl]-N′-methyl-N″-nitro,[C(E)]-(9Cl)-guanidine], the “PERCENT OF CONTROL (3-6 damage level)” value (clothianidin @ 100 gm/100 kg) was 96.6%, the “PERCENT OF CONTROL (4-6 damage level)” value (clothianidin @ 100 gm/100 kg) was 86.9% and the “PERCENT OF CONTROL (5-6 damage level)” value (clothianidin @ 100 gm/100 kg) was 39.4%. The “PERCENT PLANTS HAVING 3-6 DAMAGE LEVEL” value (clothianidin @ 100 gm/100 kg) was 96.6%, the “PERCENT PLANTS HAVING 4-6 DAMAGE LEVEL” value (clothianidin @ 100 gm/100 kg) was 71.2% and the “PERCENT PLANTS HAVING 5-6 DAMAGE LEVEL” value (clothianidin @ 100 gm/100 kg) was 15.8%. For the same compound, the “PERCENT OF CONTROL (3-6 damage level)” value (clothianidin @ 300 gm/100 kg) was 91.5%, the “PERCENT OF CONTROL (4-6 damage level)” value (clothianidin @ 300 gm/100 kg) was 50.65% and the “PERCENT OF CONTROL (5-6 damage level)” value (clothianidin @ 300 gm/100 kg) was 23.9%. For the same compound, the “PERCENT PLANTS HAVING 3-6 DAMAGE LEVEL” value (clothianidin @ 300 gm/100 kg) was 91.5%, the “PERCENT PLANTS HAVING 4-6 DAMAGE LEVEL” value (clothianidin @ 300 gm/100 kg) was 41.5% and the “PERCENT PLANTS HAVING 5-6 DAMAGE LEVEL” value (clothianidin @ 300 gm/100 kg) was 9.6%. For the same compound, the “Corn root worm damage (Iowa 1-6 scale), means across locations” value (shortened to “Corn root worm damage (Iowa 1-6 scale)”) [1] was 3.9, the “Corn root worm damage in each Iowa class (Iowa 1-6 scale): class 1” value (“Corn root worm damage … class 1” below) [1] was 0 and the “Corn root worm damage in each Iowa class (Iowa 1-6 scale): class 2” value (“Corn root worm damage … class 2” for short) [1] was 6. For the same compound, the “Corn root worm damage in each Iowa class (Iowa 1-6 scale): class 3” value (from here on “Corn root worm damage … class 3”) [1] was 45, the “Corn root worm damage in each Iowa class (Iowa 1-6 scale): class 4” value (from here on “Corn root worm damage … class 4”) [1] was 98 and the “Corn root worm damage in each Iowa class (Iowa 1-6 scale): class 5” value (from here on “Corn root worm damage … class 5”) [1] was 23. For the same compound, the “Corn root worm damage in each Iowa class (Iowa 1-6 scale): class 6” value (from here on “Corn root worm damage … class 6”) [1] was 5, the “Corn root worm damage (Iowa 1-6 scale)” value [2] was 3.4 and the “Corn root worm damage … class 1” value [2] was 0. The “Corn root worm damage … class 2” value [2] was 16, the “Corn root worm damage … class 3” value [2] was 94 and the “Corn root worm damage … class 4” value [2] was 60. The “Corn root worm damage … class 5” value [2] was 16, the “Corn root worm damage … class 6” value [2] was 2 and the “Corn root worm damage (Iowa 1-6 scale)” value [3] was 3.0. The “Corn root worm damage … class 1” value [3] was 1, the “Corn root worm damage … class 2” value [3] was 34 and the “Corn root worm damage … class 3” value [3] was 113. For the same compound, the “Corn root worm damage … class 4” value [3] was 37, the “Corn root worm damage … class 5” value [3] was 1 and the “Corn root worm damage … class 6” value [3] was 0. The “effectiveness against corn rootworm damage (in words)” value (seed treatment alone, all levels tested (100, 300, 400 gm/100 kg)) was “effective against corn rootworm damage at all levels tested”.
